Like-named read-outs stand apart in the source and are kept apart here.
Legend:
PAX6 [1] = assay: PAX6 mRNA (RT-PCR) and protein (SDS-PAGE vs GAPDH) expression in human corneal epithelial cells; format: cell-based; details: for PAX6 protein expression: human cornea epithelium cells, 48 hours of treatment
Experimental: For example, PD0325901 (PD) was tested in human corneal epithelial cells (HCEC).
HCEC were treated with a PD composition comprising 1 μM PD dissolved in culture media for up to 120 hours. PAX6 protein levels were detected by SDS-PAGE and quantified by comparing the levels of GAPDH protein (FIG. 1A). In the same treated corneal epithelial cells, PAX6 mRNA expression was measured by RT-PCR using three different primers. (FIG. 1B).
In summary, the MEK inhibition increased PAX6 mRNA and protein expressions in human corneal epithelial cells (2.7±0.2 & 3.0±0.3 folds).

PAX6 [2] = assay: PAX6 mRNA measurement in murine PAX6 heterozygote corneal MSCs; format: cell-based; details: n=3
Source text: Significance determined by t test. *P<0.05. Ctrl: control. RX: treatment.

ERK1 and ERK2 = assay: Western blot of ERK1/ERK2 in human corneal epithelial cells; format: cell-based
Source text: Western blot analysis of human corneal epithelial cells confirmed that this MEK inhibitor effectively and specifically suppresses ERK1 and ERK2, while having minimal effect on p38 as the control (FIG. 10).

mouse model of Aniridia = format: in vivo; details: for Corneal stromal thickness: P30, OCT, central cornea, WT 50.5±1.1 μm; for PAX6 protein expression in corneas: P30 PAX6 staining, compared to control; for corneal whole mount CK12 staining intensity: P90, Normal CK12 intensity: 100%; for Corneal scarring (ratio of scar area to total corneal area): slit lamp images
Experimental: Aniridia is a human condition with PAX6 mutation that develops corneal scarring and neovascularization. The MEK pathway is known to inhibit the PAX6 pathway, therefore it was investigated whether MEK inhibitors can indirectly stimulate PAX6 production. MEK inhibitors were tested in vivo, in a mouse model of Aniridia which allowed for investigation corneal opacification, scarring and neovascularization. Oral and topical formulations were optimized using an exemplary MEK inhibitor, such as PD0325901 (PD).
Aniridia mice were treated with or topical PD composition or vehicle, from postnatal day P5 to P30. Wild type (WT) littermates were used as normal reference. OCT and slit lamp images were used to compare the corneal epithelial/stromal thickness, clarity and scarring. H&E and immunostaining with PAX6 and Cytokeratin (CK)12 were used to compare the morphology, protein expression and differentiation. P30 PAX6 staining confirmed increase in PAX6 protein expression in corneas with both oral (2.3±0.2 folds) and topical (2.5±0.1 folds) methods (P<0.001) (oral data not shown, topical data FIG. 3A).
FIG. 2 provides the data from the topical administration of PD compositions. […] The area of scarring was measured manually based on the corneal opacification in the scar area on the slit lamp images using ImageJ (NIH). The ratio of the scar area to total corneal area was reported as a percentage. […] These measurements show the promotion of a more normal differentiation of the corneal epithelium and stroma (FIG. 2). Corneal epithelial and stromal thicknesses were measured at the central cornea and outside the scar area via OCT imaging.
Hematoxylin and eosin (H&E) staining was carried out on Aniridia cornea tissue. […] FIG. 2 provides representative H&E staining of frozen sections from day 30).
Immunohistochemical staining of the mice eyes for DAPI, PAX6 and CK12 (a marker for normal corneal epithelium) was also carried out.

Aniridia mouse model = assay: P90 electroretinography (ERG) in Aniridia mouse model; format: in vivo
Experimental: Retina function was assessed in the Aniridia mouse model using P90 electroretinography (ERG). Aniridia mice were treated with the PD composition described in Example 1 or vehicle.

[3] = test system: epithelial and limbal stem cell injury model; assay: Corneal injury model with limbal stem cell deficiency; format: in vivo, mouse; details: up to 1 month after injury
Experimental: The formulation was tested in an epithelial and limbal stem cell injury model, in which we injured the epithelium of the cornea up to the limbal area, creating a severe scar forming wound with limbal stem cell deficiency.
The PD composition provided in Example 1 was tested in an injury model, in which we injured the epithelium of the cornea up to the limbal area, creating a severe scar forming wound with limbal stem cell deficiency. Using an alger brush, the corneal epithelium was scraped under general anesthesia from limbus to limbus to create a limbal stem cell deficiency model. Following this injury, corneal limbal stem cell deficiency happens, similar to human disease, and the cornea becomes scarred, opacified and vascularized by time.

[4] = human corneal epithelial cells, n=3, FIG. 1

O=C(NOC[C@H](O)CO)c1ccc(F)c(F)c1Nc1ccc(I)cc1F [PD0325901, Mirdametinib]
PAX6 mRNA measurement (PAX6 [1]; [4]): increase in PAX6 expression | PAX6 protein measurement (PAX6 [1]; [4]): increase in PAX6 expression | PAX6 mRNA measurement (PAX6 [2]): increase in PAX6 expression | ERK1/ERK2 inhibition (ERK1 and ERK2): specific ERK1/ERK2 inhibition | H&E histological pattern of cornea (mouse model of Aniridia; frozen sections, day 30): more similar histological pattern to normal | toxicity of optimized formulation and dosage (mouse model of Aniridia; mouse, in vivo, po): no toxicity | Corneal stromal thickness (mouse model of Aniridia; oral): 24.7±4.1 μm | PAX6 protein expression in corneas (mouse model of Aniridia; oral): 2.3±0.2 folds | corneal whole mount CK12 staining intensity (mouse model of Aniridia; oral): 64±3% | Corneal scarring (ratio of scar area to total corneal area) (mouse model of Aniridia; oral): 2.1±0.4% | Corneal stromal thickness (mouse model of Aniridia; topical): 25.5±4.7 μm | PAX6 protein expression in corneas (mouse model of Aniridia; topical): 2.5±0.1 folds | corneal whole mount CK12 staining intensity (mouse model of Aniridia; topical): 69±32% | Corneal scarring (ratio of scar area to total corneal area) (mouse model of Aniridia; topical): 2.3±0.6% | ocular/retinal function (Aniridia mouse model; P90 electroretinography, compared to the control group): significantly better ocular/retinal function | Photopic β wave (Aniridia mouse model; topical, P90 ERG): 102.1 ± 50.9 | Scotopic α wave (Aniridia mouse model; topical, P90 ERG): −214.5 ± 64.1 | Scotopic β wave (Aniridia mouse model; topical, P90 ERG): 244.8 ± 120.1 | corneal neovascularization [3]: significantly less | corneal opacity / haziness [3]: significantly less | corneal neovascularization ([3]; listed as PD): significantly reduced | corneal opacity / haziness ([3]; listed as PD): significantly reduced

O=C(c1ccc(F)c(F)c1Nc1ccc(I)cc1F)N1CC(O)([C@@H]2CCCCN2)C1 [Cobimetinib]
PAX6 protein expression (PAX6 [1]): induced PAX6 protein expression | PAX6 protein measurement (PAX6 [1]; [4]): can induce PAX6 expression

COc1cc(F)c(F)c(Nc2ccc(I)cc2F)c1NS(=O)(=O)C1(C[C@H](O)CO)CC1 [Refametinib, refametinib]
PAX6 protein expression (PAX6 [1]): induced PAX6 protein expression | PAX6 protein measurement (PAX6 [1]; [4]): can induce PAX6 expression

From patent US20230190725A1, “MEK INHIBITORS FOR CORNEAL SCARRING AND NEOVASCULARIZATION” (THE BOARD OF TRUSTEES OF THE UNIVERSITY OF ILLINOIS, priority 2019, published 2023)
